From US6344478B2, “Use of cloprostenol and fluprostenol analogues to treat glaucoma and ocular hypertension” (Alcon Manufacturing, Ltd., priority 1993, dated 2002)

What was measured:
pupil diameter of cats = assay: Cat pupil diameter response (pupillary constriction in the cat); type: in vivo; conditions: for ED5 (equivalent response dose, from Area1-5 of pupil diameter versus time curve): area under pupil diameter vs time curve 1-5 hours, estimated from dose response relationship
Protocol: PGF2α analogues are known to contract the iris sphincter of cats and this assay is a generally accepted reference for activity.
Compounds of the present invention were therefore screened for pupillary constriction in the cat. The response is quantitated as Area1-5 values (area under the pupil diameter versus time curve from 1-5 hours), and the equivalent response dose (ED5) is estimated from its dose response relationship.

[1] = system: IOP in cynomolgus monkey eyes; assay: Monkey IOP response in lasered (ocular hypertensive) cynomolgus monkey eyes; type: in vivo; conditions: lasered right eyes of cynomolgus monkeys; five-dose regimen; estimated from dose response relationship
Protocol: In the study presented below, compound 6 (Table 2, above) was tested for IOP-lowering effect in cynomolgus monkey eyes.
The right eyes of the cynomolgus monkeys used in this study were previously given laser trabeculoplasty to induce ocular hypertension in the lasered eye. Animals had been trained to sit in restraint chairs and conditioned to accept experimental procedures without chemical restraint. IOP was determined with a pneumatonometer after light corneal anesthesia with dilute proparacaine. The test protocol included a five-dose treatment regimen because of the typical delayed response to prostaglandins. The designated test formulations were administered to the lasered right eyes, and the normal left eyes remained untreated, although IOP measurements were taken. Baseline IOP values were determined prior to treatment with the test formulation, and then IOP was determined from 1 to 7 hours after the first dose, 16 hours after the fourth dose, and 1 to 4 hours after the fifth dose.
The equivalent response dose (ED20) is estimated from the dose response relationship to be the dose producing a 20% peak reduction in IOP.

[2] = Systemic blood pressure, heart rate and blood pH/gas analysis in the rabbit ONH blood flow study; type: in vivo, Dutch-Belted rabbits; conditions: 0.004% topical q.d. 7 days
Protocol: (§1) Purpose: A two-way crossover study design was used to compare the effects of Compound 1B (0.004%), topically applied, and dosing vehicle on microvascular optic nerve head blood flow, blood pressure, heart rate, and acid-base balance in fifteen acepromazine-tranquilized Dutch-Belted rabbits. Methods: Baseline measurements were taken before treatment and after drug-free washout periods of 14 days. Microvascular optic nerve head (ONH) blood flow was measured with a fundus camera-based Laser Doppler flowmeter (LDf). Thirty microliters o a 0.004% solution of Compound 1B or vehicle was administered in left eyes only q.d. for 7 days. Experimental measurements were made 2 hours after the topical dose was administered on day 8. A sterile 23 gauge intracatheter was inserted into the central ear artery to monitor blood pressure and to take blood samples for blood pH/gas analysis.

[3] = system: microvascular optic nerve head (ONH) blood flow; assay: Optic nerve head blood flow after one-week topical treatment in the rabbit (Laser Doppler flowmeter); type: in vivo, Dutch-Belted rabbits
Protocol: as §1

## CC(C)(C)C(=O)OCCCC/C=C\C[C@@H]1[C@@H](CC[C@@H](O)COc2cccc(Cl)c2)[C@H](O)C[C@@H]1O [Compound 8, (5Z)-(9S, 11R, 15R)-16-(3-Chlorophenoxy)-17,18,19,20-tetranor-9,11,15-trihydroxy-5-prostenol Pivaloate]
Pupil diameter of cats
  ED5 (equivalent response dose, from Area1-5 of pupil diameter versus time curve): 0.06 µg
Pupil diameter of cats; versus PGF2α isopropyl ester and cloprostenol isopropyl ester
  potency in cat pupil diameter response compared with the standard compounds: nearly equivalent potency

## CC(C)OC(=O)CCC/C=C\CC1C(CC[C@@H](O)COc2cccc(C(F)(F)F)c2)[C@H](O)C[C@@H]1O (stereo partly drawn) [Compound 6, (5Z)-(9S, 11R, 15R)-17,18,19,20-Tetranor-16-(3-trifluoromethylphenoxy)-9,11,15-trihydroxy-5-prostenoic Acid Isopropyl Ester]
Pupil diameter of cats
  ED5 (equivalent response dose, from Area1-5 of pupil diameter versus time curve): 0.2 µg
[1]
  ED20 (dose producing a 20% peak reduction in IOP): 0.3 µg

## CC(C)OC(=O)CCC/C=C\C[C@H]1C(O)CC(O)[C@@H]1/C=C/C(O)COc1cccc(C(F)(F)F)c1 (stereo partly shown) [Compound 1B, Fluprostenol, isopropyl ester]
[2]
  changes in systemic blood pressure, heart rate, blood gas tensions and pH compared with the vehicle group: small non-significant changes
  mean percent decrease in arterial pCO2 tension: 2.59±2.5%
  mean percent decrease in arterial pO2 tension: 1.44±2.03%
  mean percent decrease in systemic arterial pH: 0.07±0.09%
[3]; 0.004% solution, 30 microliters topical q.d. 7 days, measured 2 hours after dose on day 8, acepromazine-tranquilized rabbits
  ONH blood flow, mean±SEM percent increase from baseline: 13.4±3.9%
[3]; 0.004% topical q.d., p<0.05
  ONH blood flow compared to the vehicle treated group: significantly increased

## CC(C)OC(=O)CCC/C=C\C[C@@H]1[C@@H](/C=C/[C@@H](O)COc2cccc(Cl)c2)[C@H](O)C[C@@H]1O [Compound 1A, Cloprostenol, isopropyl ester]
Pupil diameter of cats
  ED5 (equivalent response dose, from Area1-5 of pupil diameter versus time curve): 0.01 µg

## CCCCC[C@H](O)/C=C/[C@@H]1[C@@H](C/C=C\CCCC(=O)OC(C)C)[C@@H](O)C[C@H]1O [PGF2α Isopropyl Ester, reference compound]
Pupil diameter of cats
  ED5 (equivalent response dose, from Area1-5 of pupil diameter versus time curve): 0.02 µg
[1]
  ED20 (dose producing a 20% peak reduction in IOP): 0.4 µg
